Data: ChEMBL document CHEMBL1201862, “PubChem BioAssay data set” (2004)
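Values below derive from 48-hour exposures of cells grown in 96-well plates, with endpoints linearly interpolated between the two concentrations bracketing the appropriate inhibition level. GI50: concentration for 50% inhibition of growth.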 Calls of active or inactive are those of the source. No stated cut-off is given here; in the data, active = GI50 up to about 1.1 µM and inactive = higher.

What was measured:
Test in all cases: growth of human tumour cells (NCI), 48 h
[1] = tested on: UACC-62
[2] = tested on: SNB-19
[3] = tested on: K562
[4] = tested on: NCI-H522
[5] = tested on: CCRF-CEM
[6] = tested on: HOP-92
[7] = tested on: NCI-H460
[8] = tested on: U-251
[9] = tested on: UO-31
[10] = tested on: SF-539
[11] = tested on: HCC 2998
[12] = tested on: NCI-H23
[13] = tested on: OVCAR-3
[14] = tested on: HCT-116
[15] = tested on: HL-60
[16] = tested on: SN12C
[17] = tested on: NCI-H226
[18] = tested on: M14
[19] = tested on: DLD-1
[20] = tested on: TK-10
[21] = tested on: LOX IMVI
[22] = tested on: ACHN
[23] = tested on: DMS-273
[24] = tested on: HOP-62
[25] = tested on: IGROV-1
[26] = tested on: EKVX
[27] = tested on: SK-MEL-2
[28] = tested on: UACC-257
[29] = tested on: SF-268
[30] = tested on: DMS-114
[31] = tested on: SW-620
[32] = tested on: CAKI-1
[33] = tested on: SNB-75
[34] = tested on: LXFL 529
[35] = tested on: KM-20L2
[36] = tested on: OVCAR-5
[37] = tested on: HT-29
[38] = tested on: A549
[39] = tested on: SF-295
[40] = tested on: OVCAR-8
[41] = tested on: KM12
[42] = tested on: M19-MEL
[43] = tested on: SR
[44] = tested on: RPMI-8226
[45] = tested on: COLO 205
[46] = tested on: MOLT-4
[47] = tested on: SK-OV-3
[48] = tested on: Malme-3M
[49] = tested on: 786-0
[50] = tested on: RXF 393
[51] = tested on: HCT-15
[52] = tested on: XF498
[53] = tested on: SK-MEL-5
[54] = tested on: OVCAR-4
[55] = tested on: NCI/ADR-RES
[56] = tested on: SNB-78
[57] = tested on: A498
[58] = tested on: MCF7
[59] = tested on: SK-MEL-28

Q: For `O=C(CO[N+](=O)[O-])OC/C=C/c1ccccc1`, which GI50 [1] is on record?
A: > 10 µM (inactive)

Q: What about the GI50 [2] of the same molecule?
A: > 100 µM (inactive)

Q: And the GI50 [3]?
A: > 100 µM (inactive)

Q: What about the GI50 [4] of the same molecule?
A: > 100 µM (inactive)

Q: What about the GI50 [5] of the same molecule?
A: > 100 µM (inactive)

Q: What about the GI50 [6] of the same molecule?
A: > 100 µM (inactive)

Q: What about the GI50 [7] of the same molecule?
A: > 100 µM (inactive)

Q: What about the GI50 [8] of the same molecule?
A: > 100 µM (inactive)

Q: And the GI50 [9]?
A: > 100 µM (inactive)

Q: And the GI50 [10]?
A: > 100 µM (inactive)

Q: And the GI50 [11]?
A: > 100 µM (inactive)

Q: And the GI50 [12]?
A: > 100 µM (inactive)

Q: And the GI50 [13]?
A: > 100 µM (inactive)

Q: And the GI50 [14]?
A: > 100 µM (inactive)

Q: What about the GI50 [15] of the same molecule?
A: 22.1 µM (inactive)

Q: What about the GI50 [16] of the same molecule?
A: > 100 µM (inactive)

Q: And the GI50 [17]?
A: > 100 µM (inactive)

Q: What about the GI50 [18] of the same molecule?
A: > 100 µM (inactive)

Q: What about the GI50 [19] of the same molecule?
A: > 100 µM (inactive)

Q: And the GI50 [20]?
A: > 100 µM (inactive)

Q: What about the GI50 [21] of the same molecule?
A: > 100 µM (inactive)

Q: And the GI50 [22]?
A: > 100 µM (inactive)

Q: What about the GI50 [23] of the same molecule?
A: > 100 µM (inactive)

Q: What about the GI50 [24] of the same molecule?
A: > 100 µM (inactive)

Q: And the GI50 [25]?
A: > 100 µM (inactive)

Q: And the GI50 [26]?
A: > 100 µM (inactive)

Q: What about the GI50 [27] of the same molecule?
A: > 100 µM (inactive)

Q: And the GI50 [28]?
A: > 100 µM (inactive)

Q: What about the GI50 [29] of the same molecule?
A: > 100 µM (inactive)

Q: And the GI50 [30]?
A: > 100 µM (inactive)

Q: What about the GI50 [31] of the same molecule?
A: > 100 µM (inactive)

Q: What about the GI50 [32] of the same molecule?
A: > 100 µM (inactive)

Q: And the GI50 [33]?
A: > 100 µM (inactive)

Q: And the GI50 [34]?
A: > 100 µM (inactive)

Q: What about the GI50 [35] of the same molecule?
A: > 100 µM (inactive)

Q: And the GI50 [36]?
A: > 100 µM (inactive)

Q: What about the GI50 [37] of the same molecule?
A: > 100 µM (inactive)

Q: What about the GI50 [38] of the same molecule?
A: > 100 µM (inactive)

Q: What about the GI50 [39] of the same molecule?
A: > 100 µM (inactive)

Q: And the GI50 [40]?
A: > 100 µM (inactive)

Q: And the GI50 [41]?
A: > 100 µM (inactive)

Q: And the GI50 [42]?
A: > 100 µM (inactive)

Q: And the GI50 [43]?
A: > 100 µM (inactive)

Q: What about the GI50 [44] of the same molecule?
A: > 100 µM (inactive)

Q: What about the GI50 [45] of the same molecule?
A: > 100 µM (inactive)

Q: And the GI50 [46]?
A: > 100 µM (inactive)

Q: And the GI50 [47]?
A: > 100 µM (inactive)

Q: What about the GI50 [48] of the same molecule?
A: > 100 µM (inactive)

Q: And the GI50 [49]?
A: > 100 µM (inactive)

Q: And the GI50 [50]?
A: > 100 µM (inactive)

Q: What about the GI50 [51] of the same molecule?
A: > 100 µM

Q: What does the source list for `COC(=O)C1=CC2OC1(C)C1(CC1)C2=O` (stereo not drawn)?
A: GI50 [2]: > 100 µM (inactive); GI50 [3]: 12.2 µM (inactive); GI50 [4]: 5.73 µM (inactive); GI50 [5]: 5.6 µM (inactive); GI50 [7]: 22.6 µM (inactive); GI50 [8]: > 100 µM (inactive); GI50 [9]: 22.1 µM (inactive); GI50 [10]: 17.6 µM (inactive); GI50 [11]: 18.3 µM (inactive); GI50 [12]: 22 µM (inactive); GI50 [13]: 16.2 µM (inactive); GI50 [14]: 13.8 µM (inactive); GI50 [15]: 4.02 µM (inactive); GI50 [16]: 16.6 µM (inactive); GI50 [17]: 21.6 µM (inactive); GI50 [18]: 13.5 µM (inactive); GI50 [19]: 14.3 µM (inactive); GI50 [20]: > 10 µM (inactive); GI50 [21]: 14 µM (inactive); GI50 [22]: 15.3 µM (inactive); GI50 [23]: > 10 µM (inactive); GI50 [24]: > 100 µM (inactive); GI50 [25]: 17.9 µM (inactive); GI50 [26]: 15.2 µM (inactive); GI50 [27]: > 10 µM (inactive); GI50 [28]: 16.1 µM (inactive); GI50 [29]: 20.3 µM (inactive); GI50 [31]: 14.7 µM (inactive); GI50 [32]: 16 µM (inactive); GI50 [33]: 19.8 µM (inactive); GI50 [52]: 14.7 µM (inactive); GI50 [34]: 18.5 µM (inactive); GI50 [53]: > 10 µM (inactive); GI50 [35]: 17.5 µM (inactive); GI50 [36]: 23.8 µM (inactive); GI50 [37]: 12.9 µM (inactive); GI50 [38]: 24.3 µM (inactive); GI50 [39]: 19 µM (inactive); GI50 [40]: 16 µM (inactive); GI50 [41]: 20.6 µM (inactive); GI50 [42]: 21 µM (inactive); GI50 [43]: 10.3 µM (inactive); GI50 [44]: 6.85 µM (inactive); GI50 [45]: 13.5 µM (inactive); GI50 [46]: 6.92 µM (inactive); GI50 [54]: 11.6 µM (inactive); GI50 [47]: 76.9 µM (inactive); GI50 [48]: 11.7 µM (inactive); GI50 [49]: 17.2 µM (inactive); GI50 [50]: 15.5 µM (inactive); GI50 [51]: 15.9 µM

Q: What does the source list for `CC1OC(O[C@@H]2C=C3CC[C@@H]4[C@H](CC[C@]5(C)[C@@H](c6ccc(=O)oc6)CC[C@]45O)[C@@]3(C)CC2)C(O)C(OC2OC(CO)C(O)C(O)C2O)C1O` (stereo partly drawn)?
A: GI50 [55]: 0.025 µM (active); GI50 [1]: 0.025 µM (active); GI50 [2]: 0.025 µM (active); GI50 [3]: 0.025 µM (active); GI50 [56]: 0.025 µM (active); GI50 [5]: 0.025 µM (active); GI50 [6]: 0.025 µM (active); GI50 [8]: 0.025 µM (active); GI50 [9]: 0.025 µM (active); GI50 [11]: 0.025 µM (active); GI50 [57]: 0.025 µM (active); GI50 [14]: 0.025 µM (active); GI50 [15]: 0.025 µM (active); GI50 [16]: 0.025 µM (active); GI50 [17]: 0.0255 µM (active); GI50 [19]: 0.025 µM (active); GI50 [21]: 0.025 µM (active); GI50 [25]: 0.025 µM (active); GI50 [58]: 0.025 µM (active); GI50 [26]: 0.025 µM (active); GI50 [27]: 0.025 µM (active); GI50 [28]: 0.025 µM (active); GI50 [31]: 0.025 µM (active); GI50 [33]: 0.025 µM (active); GI50 [52]: 0.025 µM (active); GI50 [35]: 0.025 µM (active); GI50 [36]: 0.0275 µM (active); GI50 [37]: 0.0281 µM (active); GI50 [39]: 0.025 µM (active); GI50 [40]: 0.025 µM (active); GI50 [59]: 0.025 µM (active); GI50 [41]: 0.025 µM (active); GI50 [42]: 0.025 µM (active); GI50 [44]: 0.025 µM (active); GI50 [45]: 0.025 µM (active); GI50 [51]: 0.025 µM
